Results published in patent publication US20080125400A1, “USE OF PHOSPHOENOLPYRUVATE DERIVATIVES” (priority 2006, published 2008).

Tested on: troponin I
Test: Randomized double-blind trial of PEPA in blood-based STH cardioplegia; blood troponin I by immunoassay (ADVIA Centaur)
Format: in vivo, human
Settings: patients undergoing coronary artery bypass surgery; versus STH without PEPA
Protocol: A study was carried out to determine the effect of PEPA on heart tissue in patients with ischemic heart disease undergoing coronary artery bypass surgery. The study was a randomized, double-blind, parallel group, comparative trial that compared the effect during surgery (and shortly thereafter) of the presence or absence of a single dose of PEPA in blood-based STH.
The patients were assigned randomly to one of two groups. For the first group, PEPA was made up in a concentration of 495 μM/L as a single dose added to blood-based STH (“PEPA+STH”). Normal blood-based STH (without PEPA) was administered to the second group. There were 37 patients in each group.
PEPA was made up under sterile conditions in 40 ml of Ringer's solution and then filtered using a sterile 0.22 μm filter to sterilize the solution. Ten mL aliquots of the sterile PEPA solution were measured and added to each of three 1 L bags of Ringer's solution under sterile conditions providing a Ringer's solution containing 990 μM/L PEPA. […]
A sample of blood was collected from each patient at regular intervals during surgery (at the time of anaesthesia and at 6 and 12 hours after the start of surgery) and after surgery (at 24, 48 and 72 hours after the start of surgery). Each sample was analyzed by an immunoassay method using an ADVIA Centaur® system to determine the level of troponin I. […]

C=C(OP(=O)(O)O)C(N)=O [PEPA, 2-(dihydroxyphosphoryloxy)prop-2-enoic amide]
overall concentration of troponin I in the blood over the period studied: markedly reduces
